Data on nine molecules can be found in publication PMC8231170, “Biphenylalkoxyamine Derivatives–Histamine H3 Receptor Ligands with Butyrylcholinesterase Inhibitory Activity” (Molecules, 2021).

For data set [1], the target named is human acetylcholinesterase. The conditions noted are these: read-out: hAChE IC50; cited from earlier work.
Data set [2] addresses human butyrylcholineserase. The conditions noted are these: read-out: hBuChE IC50; cited from earlier work.
Data set [3] has as its target hH3R. As to conditions: cited from earlier work.
Data set [4] concerns the target Fatty Acid Amide Hydrolase from rat brain membranes. The conditions noted are these: read-out: rFAAH IC50; cited from earlier work.
In data set [5] the target is T1, BuChE from equine serum (Equus caballus, UniProt P81908).
T1 construct: AChE was obtained from electric eel and BuChE from equine serum; purchased Sigma Aldrich; host or cells: equine serum (natural source)
T1 sequence (P81908 whole entry): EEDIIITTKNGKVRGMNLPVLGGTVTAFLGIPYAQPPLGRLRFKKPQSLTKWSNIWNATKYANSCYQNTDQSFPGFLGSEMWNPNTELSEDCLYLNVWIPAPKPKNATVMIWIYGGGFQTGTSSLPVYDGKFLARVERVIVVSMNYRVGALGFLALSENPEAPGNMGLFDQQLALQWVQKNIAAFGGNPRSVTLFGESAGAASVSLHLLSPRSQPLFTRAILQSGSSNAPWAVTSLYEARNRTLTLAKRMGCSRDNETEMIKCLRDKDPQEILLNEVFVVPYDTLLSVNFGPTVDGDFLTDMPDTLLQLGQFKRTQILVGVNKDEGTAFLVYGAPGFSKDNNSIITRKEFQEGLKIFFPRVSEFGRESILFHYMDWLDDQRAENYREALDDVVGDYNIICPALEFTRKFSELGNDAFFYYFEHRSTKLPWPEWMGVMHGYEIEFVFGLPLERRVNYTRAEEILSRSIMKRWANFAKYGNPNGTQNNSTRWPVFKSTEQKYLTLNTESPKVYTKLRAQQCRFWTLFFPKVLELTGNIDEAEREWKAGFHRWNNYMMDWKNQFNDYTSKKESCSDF
As to conditions: cited from earlier work.

The target in data set [6] is T2, human MAO B (Homo sapiens, UniProt P27338).
T2 construct: purchased Sigma Aldrich M7441
T2 sequence (P27338 1-520): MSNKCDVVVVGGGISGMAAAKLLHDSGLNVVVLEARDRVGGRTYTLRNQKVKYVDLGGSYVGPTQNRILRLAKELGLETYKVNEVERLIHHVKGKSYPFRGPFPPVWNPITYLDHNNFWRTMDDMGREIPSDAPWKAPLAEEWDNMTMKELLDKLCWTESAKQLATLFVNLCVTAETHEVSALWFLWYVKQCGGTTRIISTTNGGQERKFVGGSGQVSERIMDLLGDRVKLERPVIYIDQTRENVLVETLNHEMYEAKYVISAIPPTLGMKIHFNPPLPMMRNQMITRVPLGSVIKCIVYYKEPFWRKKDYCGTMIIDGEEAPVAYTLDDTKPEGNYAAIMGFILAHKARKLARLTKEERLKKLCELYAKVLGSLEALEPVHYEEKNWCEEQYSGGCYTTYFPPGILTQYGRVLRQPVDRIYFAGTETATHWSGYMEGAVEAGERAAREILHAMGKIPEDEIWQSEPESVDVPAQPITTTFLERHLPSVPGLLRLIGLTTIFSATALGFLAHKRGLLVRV
As to the kind of experiment: fluorometric Monoamine Oxidase assay. Type of data set: biochemical. As to conditions: for inhibition at 1 µM: read-out: hMAO B %Inh. (converted). How it is done:
Inhibition of human MAO B (hMAO B) was evaluated using a fluorometric Monoamine Oxidase assay as we described previously.
Inhibition of hMAO B was evaluated using fluorometric Monoamine Oxidase assay as described by Łażewska et al.. Recombinant MAO B was purchased from Sigma Aldrich (M7441). […] The assay was carried out in 96-well plate. Tested compounds dissolved in DMSO (1 μM) were added to wells that contained 98 µL of enzyme dilution (1 µg/well) in phosphate buffer (50 mM, pH 7.4). […] An enzymatic reaction started following addition of para-tyramine solution (200 μM). […] Each experiment was performed in duplicate.

Data set [7] concerns the target T3, AChE from electric eel (Electrophorus electricus, UniProt O42275).
T3 construct: AChE was obtained from electric eel and BuChE from equine serum; purchased Sigma Aldrich; host or cells: electric eel (natural source)
As to conditions: cited from earlier work; for IC50: AChE from electric eel, read-out: eeAChE IC50 Mean ± SEM; for eeAChE % Inh.: at 10 μM.

The target in data set [8] is T4, eqBuChE (Equus caballus, UniProt P81908).
T4 construct: AChE was obtained from electric eel and BuChE from equine serum; purchased Sigma Aldrich; host or cells: equine serum (natural source)
T4 sequence (P81908 whole entry): as the sequence (P81908 whole entry) above
As to the kind of experiment: kinetic studies of eqBuChE inhibition. Type of data set: biochemical. The conditions noted are these: for type of eqBuChE inhibition: Lineweaver–Burk and Cornish–Bowden plots, substrate butyrylthiocholine. As for the experimental part: Moreover, the dissociation constant (Ki), describing the binding affinity between the inhibitor and the enzyme, was determined.
EqBuChE stock solution was diluted with demineralized water prior to use, giving the final concentration of 0.027 U/mL in the wells. […] For each concentration of the target compound, all six BTC solutions were utilized to perform the assays. Vmax and Km values of the Michaelis−Menten kinetics were calculated by nonlinear regression from substrate−velocity curves. Lineweaver-Burk and Cornish-Bowden plots were calculated using linear regression in GraphPad Prism 5 (GraphPad Software, San Diego, CA, USA). Each experiment was performed in triplicate.

Data set [9] has as its system mouse model of scopolamine-induced memory impairments. As to the kind of experiment: step-through Passive Avoidance Task. Type of data set: in vivo. The conditions noted are these: mice. How it is done:
This procedure was created for studying short-term memory as well as long-term memory. The paradigm requires the rodents to behave contrary to their innate preference for dark areas and for avoiding bright ones.
The experiments were carried out on adult male Albino Swiss mice (CD-1, 18–25 g). […] Experimental groups consisted of 6–12 animals, all the animals were used only once and they were killed by cervical dislocation immediately after the assay. Behavioral measures were scored by trained observers, which were blind to experimental conditions. Treatment of laboratory animals in the present study was in full accordance with the respective Polish regulations.
Control animals (negative control) were given an appropriate amount of vehicle (1% aqueous solution of Tween 80; i.p.) 30 min before the test.
The task was performed according to the method described previously. Briefly, the test was conducted in the apparatus with two compartments (LE872, Bioseb, France). The illuminated white compartment (20 cm × 21 cm × 20 cm, 1000 lx) was separated by an automated sliding gate with the smaller dark compartment (7.3 cm × 7.5 cm × 14 cm, 10 lx) equipped with an electric grid floor. For acquisition session, mice were first placed individually in the white compartment and after 30 s the gate to the smaller compartment was opened. Immediately after entering into the dark compartment, the gate was closed and the mouse was punished by an unavoidable electric foot shock (0.8 mA for 2 s). […] Next day (24 h later), the pretested animals were placed again into the bright compartment. […] The latency time to cross through the gate between the compartments was measured.

The conditions of data set [10]: up to 10 µM; cited from earlier work.
Data set [11] has as its target histamine receptors: H1. The conditions noted are these: cited from earlier work.
Data set [12] concerns the target T3, AChE from electric eel. As to the kind of experiment: eeAChE inhibition, Ellman's method. Type of data set: biochemical. As to conditions: read-out: eeAChE % Inh. As for the experimental part:
The inhibitory activities of the tested compounds against cholinesterases were evaluated by Ellman’s method. AChE was obtained from electric eel and BuChE from equine serum. Donepezil and rivastigmine were used as reference compounds. […]. Inhibitory activities of the tested compounds against cholinesterases were measured using a spectrophotometric method modified for 96-well microplates as described recently.
[…]. First, all compounds were screened at the concentration of 10 μM. The changes in absorbance were measured at 412 nm, using a microplate reader (EnSpire Multimode; PerkinElmer, Waltham, MA, USA). Then, the percent of inhibition of tested enzymes for each compound was calculated. […] Each concentration was measured in triplicate. All calculations were made using nonlinear regression GraphPad Prism 5 (GraphPad Software, San Diego, CA, USA).
On the technique in general: In Ellman's method for cholinesterases, released thiocholine reacts with DTNB.

Data set [13] has as its target histamine receptors: H4. As to conditions: cited from earlier work.
The conditions of data set [14]: previous in vitro studies; cited from earlier work.
In data set [15] the target is T1, BuChE from equine serum. As to the kind of experiment: eqBuChE inhibition, Ellman's method. The format is biochemical. As for the experimental part:
The inhibitory activities of the tested compounds against cholinesterases were evaluated by Ellman’s method. AChE was obtained from electric eel and BuChE from equine serum. […] Inhibitory activities of the tested compounds against cholinesterases were measured using a spectrophotometric method modified for 96-well microplates as described recently.
First, all compounds were screened at the concentration of 10 μM. […] Then, the percent of inhibition of tested enzymes for each compound was calculated. […] Each concentration was measured in triplicate. All calculations were made using nonlinear regression GraphPad Prism 5 (GraphPad Software, San Diego, CA, USA).

Data set [16] has as its target T5, human histamine H3 receptor (Homo sapiens, UniProt Q9Y5N1).
T5 construct: expressed in transfected cells; host or cells: HEK293
As to conditions: read-out: hH3R Ki Mean ± SD [CI 95%]; [3H]Nα-methylhistamine, HEK293 cells stably expressing human H3R; cited from earlier work.

Where [17] appears, read: read-out: eqBuChE IC50 Mean ± SEM.

Entries after “also recorded” stand apart in the source; their conditions may differ. Where two headings read alike, the source gives them in different places. Marks after values point to notes of the source that are not given here.

T3 sequence (O42275 24-633): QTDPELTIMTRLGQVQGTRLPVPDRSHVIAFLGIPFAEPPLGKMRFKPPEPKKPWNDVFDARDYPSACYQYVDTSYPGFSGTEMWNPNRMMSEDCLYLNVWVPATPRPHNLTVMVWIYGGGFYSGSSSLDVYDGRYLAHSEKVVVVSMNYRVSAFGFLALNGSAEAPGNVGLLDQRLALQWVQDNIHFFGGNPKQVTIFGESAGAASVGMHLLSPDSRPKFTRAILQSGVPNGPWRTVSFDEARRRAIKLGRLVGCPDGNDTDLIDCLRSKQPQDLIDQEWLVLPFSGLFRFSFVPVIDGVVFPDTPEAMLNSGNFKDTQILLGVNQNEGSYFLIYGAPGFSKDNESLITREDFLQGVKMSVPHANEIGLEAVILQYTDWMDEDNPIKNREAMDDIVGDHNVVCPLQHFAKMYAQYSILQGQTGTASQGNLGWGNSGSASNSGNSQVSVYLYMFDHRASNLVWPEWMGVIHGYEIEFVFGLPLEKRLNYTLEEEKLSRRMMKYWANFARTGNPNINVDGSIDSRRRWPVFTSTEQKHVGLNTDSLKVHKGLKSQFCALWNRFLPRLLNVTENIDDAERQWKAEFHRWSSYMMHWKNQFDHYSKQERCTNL
T5 sequence (Q9Y5N1 whole entry): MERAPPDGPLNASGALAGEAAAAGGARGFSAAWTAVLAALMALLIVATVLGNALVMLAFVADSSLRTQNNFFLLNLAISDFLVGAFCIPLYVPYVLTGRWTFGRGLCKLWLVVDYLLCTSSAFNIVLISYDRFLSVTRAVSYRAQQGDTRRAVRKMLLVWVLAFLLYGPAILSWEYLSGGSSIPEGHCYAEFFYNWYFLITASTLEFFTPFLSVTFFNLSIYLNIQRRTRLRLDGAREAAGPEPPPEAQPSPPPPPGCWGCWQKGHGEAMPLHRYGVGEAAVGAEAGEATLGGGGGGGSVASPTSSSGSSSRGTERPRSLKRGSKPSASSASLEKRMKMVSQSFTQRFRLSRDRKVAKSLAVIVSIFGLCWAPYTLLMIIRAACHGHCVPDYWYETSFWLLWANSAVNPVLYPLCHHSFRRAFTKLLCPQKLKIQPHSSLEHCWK

In general, IC50 refers to the concentration at which inhibition is half-maximal. The Ki is a measure of affinity in units of concentration, obtained from inhibition or displacement. With `O=c1c2cc(Cl)ccc2oc2ccc(OCCCCCN3CCCCCC3)cc12` [Compound E342], the values for the concentration for half-maximal inhibition (IC50) in data set [1] and in data set [2] were 120 nM and 1600 nM, respectively. The inhibitory constant (Ki) in data set [3] was 100 nM.

On to `O=C(NCCCCCc1ccccc1)Oc1cccc(Cn2cc(COc3ccc4ccc(=O)oc4c3)nn2)c1` [Compound 2], for which the IC50 is 28 nM in [4], 922 nM in data set [1] and 43 nM in data set [2].

On to `Cc1[nH]c2ccccc2c1CC(=O)NCCC1CCN(Cc2ccccc2)CC1` [Compound 1], for which the half-maximal inhibitory concentration (IC50) was 7270 nM in data set [1] and 1.09 nM in data set [2].

For `CC1CCN(CCCCCCOc2ccc(-c3ccccc3)cc2)CC1` [Compound 4], the IC50 in [5] (setting [17]) was 740 ± 20 nM. For the same molecule, the inhibition at 1 µM in data set [6] was 27%. In data set [7], the IC50 is 4460 ± 100 nM and the “eeAChE % Inh.” value was “more than 50%”.

Take `CC1CCN(CCCCCOc2ccc(-c3ccccc3)cc2)CC1` [Compound 3]: the concentration for half-maximal inhibition (IC50) in data set [5] (read-out: eqBuChE IC50) is 851 nM; in data set [5] (setting [17]), 850 ± 20 nM. For the same molecule, the inhibition at 1 µM in data set [6] was 36%. Further, the “eeAChE % Inh.” value in data set [7] is on record as “(42% ± 1) ^i”.

Take `C#CCN(C)Cc1cc2cc(OCCCN3CCCCC3)ccc2n1C` [contilisant]: the IC50 in data set [1] is 530 nM; in [2] it was 1690 nM. Besides, the inhibition constant (Ki) in data set [3] was 11 nM.

As for `c1ccc(-c2ccc(OCCCCCCN3CCCCCC3)cc2)cc1` [Compound 5], in [5] (setting [17]), the IC50 is 600 ± 10 nM. Besides, in data set [6], the inhibition at 1 µM was 45%. Moreover, in data set [7], the half-maximal inhibitory concentration (IC50) is 2760 ± 40 nM and the “eeAChE % Inh.” value was “more than 50%”. Besides, the “type of eqBuChE inhibition” value in data set [8] was “non-competitive type of eqBuChE inhibition”. The Ki in [8] (replot of Lineweaver–Burk data, read-out: dissociation constant (Ki) for eqBuChE) was 652 nM.

For the molecule `c1ccc(-c2ccc(OCCCCCN3CCCCCC3)cc2)cc1` [Compound 19, 1-(5-([1,1′-biphenyl]-4-yloxy)pentyl)azepane], the “latency time, retention trial” value in [9] (1.25 mg/kg i.p. before scopolamine 1 mg/kg) is listed as 93.5 ± 17.4 s; in data set [9] (2.5 mg/kg i.p. before scopolamine 1 mg/kg), 119.1 ± 21.2 s; in [9] (5.0 mg/kg i.p. before scopolamine 1 mg/kg), 129.8 ± 17.8 s. Besides, the “activity in retention trial” value in data set [9] (10 mg/kg i.p. before scopolamine 1 mg/kg) is “lower activity”. The “effect on scopolamine-induced memory deficits” value in data set [9] (Passive Avoidance Task, listed as 19 (E153)) is “effectively alleviated memory deficits caused by scopolamine; also recorded: reversed memory impairments induced by scopolamine”. Further, in data set [9] (i.p.), the “latency times, acquisition trial” value is reported as “neither scopolamine, nor 19 nor rivastigmine significantly affected latency times”. In addition, the mutagenic activity result in [10] is reported as “no mutagenic activity”. The IC50 turned out to be 243 ± 73 nM in data set [6] and 590 ± 10 nM in data set [15]. In addition, in data set [6], the inhibition at 1 µM was 54%. In addition, the inhibitory constant (Ki) in data set [11] is 1300 nM; in data set [13], 21800 nM. Further, in data set [12], the inhibition at 10 µM worked out at 44%. Further, in data set [8], the “type of eqBuChE inhibition” value is “mixed type of enzyme inhibition; also recorded: mixed mode of enzyme inhibition”. Also, the “blood–brain barrier crossing” value in [14] was “crosses the blood–brain barrier (BBB)”.

As to `CC1CCN(CCCCCCOc2cccc(-c3ccccc3)c2)CC1` [Compound 17], in data set [6], the inhibition at 1 µM was 5%. For the same molecule, in data set [16], the inhibition constant Ki was 172 ± 73 nM. Further, the inhibition at 10 µM in [12] is 48%. Also, the concentration for half-maximal inhibition (IC50) in data set [15] (BuChE from equine serum, read-out: eqBuChE IC50 Mean ± SEM) turned out to be 1490 ± 40 nM.
